The text below walks through data of PubChem BioAssay AID686957 (The Scripps Research Institute Molecular Screening Center, 2013).

The IC50 is the concentration needed to halve the response being measured.

Molecules are shown by their SMILES. The source made the active and inactive calls. How the calls were made is not given here.

The target of this assay is T-cell receptor (TCR)-CD3 interaction, human (TCR alpha chain TRAV4). Put plainly: IC50 for blocking TCR-CD3 binding – biochemical, fluorescence, TAMRA-labeled TCR probe, dose response (AID 686957).
As to `COc1ccc(/C=C2\SC(=O)N(CC(=O)NNC(=O)c3ccccc3O)C2=O)cc1`, the IC50 was > 94.1 µM (inactive).
For `NS(=O)(=O)c1ccc(NC(=O)c2cccc(N3C(=O)c4ccccc4C3=O)c2)cc1`, the IC50 was > 94.1 µM (inactive).
For `CC(C)C(=O)Nc1ccc(C(=O)NNC(=S)NC(=O)c2ccco2)cc1` the value was > 94.1 µM (inactive); for `COc1cccc(OCC(=O)NNC(=O)c2ccc3ccccc3c2O)c1`, > 94.1 µM (inactive).
Then `O=C(N/N=C/c1c(O)n(CCc2ccccc2)c(=O)[nH]c1=O)c1ccccc1O`, with > 94 µM (inactive); and `CC(C)(C)c1ccc(C(=O)NCC(=O)NNC(=O)c2ccccc2O)cc1`, with > 94.1 µM (inactive); and `O=[N+]([O-])c1cc(Cl)cc(/C=N/NC(=S)Nc2ccc(S(=O)(=O)N3CCOCC3)cc2)c1O`, with > 94.1 µM (inactive).
Consider `Cc1ccc(S(=O)(=O)N2CCC(C(=O)NNC(=O)c3ccccc3O)CC2)cc1`, for which the IC50 is > 94.1 µM (inactive).
Then `CCOc1ccc(Nc2ccc(N)c(S(=O)(=O)O)c2)cc1`, with > 94.1 µM (inactive).
For `CC(=O)NC(CC(=O)NNC(=O)c1cc2ccccc2cc1O)c1ccccc1` (configuration not stated) the value was > 94.1 µM (inactive); for `COc1ccc(/C=N/NC(=O)c2cc(O)c(O)c(O)c2)cc1Cn1cc([N+](=O)[O-])cn1`, 3.84 µM; for `CN(C(=O)COC(=O)c1cc(-c2ccco2)nc2ccccc12)C1CCS(=O)(=O)C1` (configuration not stated), “inactive”.
Then `Cc1cccc(-n2c(O)c(/C=N/NC(=O)c3ccccc3Cl)c3ccccc3c2=O)n1`, with > 94.1 µM (inactive).
In the case of `Cc1ccc(C(=O)NNC(=O)c2cc3ccccc3cc2O)cc1`, the IC50 is > 94.1 µM (inactive).
Then `O=C(Cc1nnc(NC(=O)c2ccccc2)s1)N/N=C\c1ccc(O)c(O)c1`, with > 94.1 µM (inactive); and `CNC(=S)NNC(=O)c1cccn(Cc2ccc(Cl)cc2Cl)c1=O`, with > 94.1 µM (inactive).
For `Oc1ccc(-c2cn3c(n2)SCC3)cc1O` the value was “inactive”; for `O=C(N/N=C/c1ccoc1)c1cc(O)cc(O)c1`, > 94 µM (inactive); for `C/C(=N/NC(=O)c1cc(O)c(O)c(O)c1)c1ccc([N+](=O)[O-])cc1`, > 94.1 µM (inactive).
Then `CCOC(=O)c1c(C)[nH]c(C(=O)N/N=C/c2cc([N+](=O)[O-])ccc2O)c1C`, with > 94.1 µM (inactive); and `NC(=O)CCC1NC(=S)N(Cc2ccccc2)C1=O` (configuration not stated), with > 94.1 µM (inactive).
Consider `COc1ccc2nc(C)cc(SCC(=O)N/N=C/c3ccc(O)c(O)c3)c2c1`, for which the IC50 was > 94.1 µM (inactive).
Then `Nc1c(C(=O)NCC2CCCO2)sc2nc3c(c(-c4ccco4)c12)CC/C3=C\c1ccco1` (configuration not stated), with “inactive”; and `Cc1ccccc1C(=O)NNC(=S)NC(=O)c1cccnc1`, with > 94.1 µM (inactive).
For `C/C(=N\NC(=O)c1ccc(-c2ccccc2)cc1)C1C(=O)c2ccccc2C1=O` the value was > 94.1 µM (inactive).
For `O=c1c2c(-c3ccc(Cl)cc3)csc2ncn1/N=C/c1cccc([N+](=O)[O-])c1O` the value was > 94.1 µM (inactive).
With `CCN(CC(=O)Nc1c(F)cccc1F)C(=O)/C=C/c1ccc2ccccc2n1`, the IC50 is > 94.1 µM (inactive).
Then `O=C1NC(=S)NC1=Cc1ccco1`, with > 94.1 µM (inactive); and `Cc1cc(C(=O)N/N=C/c2cc(Cl)cc([N+](=O)[O-])c2O)c2ccccc2n1`, with > 94.1 µM (inactive).
In the case of `O=C(NC(=S)NNC(=O)c1ccccc1O)c1cccnc1`, the IC50 is > 94.1 µM (inactive).
Then `O=C1NC(=S)S/C1=C\C=C\c1ccc([N+](=O)[O-])o1`, with > 94.1 µM (inactive).
For `O=C(Nc1cccc(S(=O)(=O)NC2=NCCC2)c1)c1cc(-c2ccco2)nc2ccccc12` the value was > 94.1 µM (inactive).
Then `O=C(N/N=C/c1cn(Cc2cccc(F)c2)c2ccccc12)c1cc(O)cc(O)c1`, with > 94.1 µM (inactive).
In the case of `C/C(=N\OCc1nc2ccccc2c(=O)n1/N=C/c1cc(C)cc([N+](=O)[O-])c1O)c1ccccc1`, the IC50 is > 94.1 µM (inactive).
For `CCc1ccccc1NC(=O)NNC(=O)c1ccc2ccccc2c1O` the value was > 94.1 µM (inactive); for `Nc1ccc([N+](=O)[O-])cc1C(=O)NNC(=O)c1ccco1`, > 94.1 µM (inactive); for `CCC(=O)Nc1ccc2nc3c(=O)[nH]c(=S)[nH]c3nc2c1`, > 94.1 µM (inactive).
Then `CC/C(=N\NC(=O)c1ccccc1O)c1c(O)n(Cc2ccccc2)c(=O)[nH]c1=O`, with > 94.1 µM (inactive); and `O=C(CCCN1C(=O)/C(=C/c2cccs2)SC1=S)NNC(=O)c1ccccc1O`, with > 94.1 µM (inactive).
For `O=c1oc2ccccc2c2oc3cc(O)c(O)cc3c12` the value was > 94.2 µM (inactive); for `COc1cc(Br)cc2cc(C(=O)N3CCN(C(=O)c4ccco4)CC3)c(=O)oc12`, > 94.1 µM (inactive); for `CNC(=S)NNC(=O)c1cccn(Cc2ccccc2)c1=O`, > 94.2 µM (inactive).
As for `COc1ccc(-c2cnnn2-c2ccc(NC(=O)c3ccc(S(=O)(=O)N4CCCCC4)cc3)cc2)cc1OC`, the IC50 result was “inactive”.
For `CCOC(=O)Cn1c(=NC(=O)c2cc(-c3cccs3)nc3ccccc23)sc2cc(S(N)(=O)=O)ccc21`, the IC50 was > 94.1 µM (inactive).
For `O=C(NNC(=S)NC(=O)c1cccs1)c1ccc(O)cc1` the value was > 94 µM (inactive).
As to `C=CCNC(=S)NNC(=O)c1cccn(Cc2cccc(Cl)c2)c1=O`, the IC50 is > 94.1 µM (inactive).
For `O=C(NNC(=S)NC(=O)c1cccnc1)c1ccc(F)cc1` the value was > 94.1 µM (inactive); for `O=c1cc(-c2ccc(O)cc2)oc2cc(O)c(C3OC(CO)C(O)C(O)C3O)c(O)c12` (configuration not stated), > 94.1 µM (inactive).
`COc1ccc(NC(=O)CSc2sc3c(O)cc(=O)[nH]c3c2C#N)c(OC)c1`: the IC50 is > 94.1 µM (inactive).
For `O=C(CSc1nnc(-c2ccccc2O)n1Cc1ccccc1)NNC(=O)c1ccccc1O` the value was > 94.1 µM (inactive); for `O=C(O)c1ccccc1NS(=O)(=O)c1ccc(N/N=C/c2ccc(O)c(O)c2)c([N+](=O)[O-])c1`, “inactive”.
For `CC1=NN(C(=O)c2ccccc2)C(O)(c2ccc(Br)cc2)C1` (configuration not stated) the value was > 94.2 µM (inactive); for `O=[N+]([O-])c1cc(Br)c(O)c(/C=N/Nc2nnnn2-c2cccc3ccccc23)c1`, > 94.1 µM (inactive).
Then `CCCCCC(=O)NC(=S)NC1C2CC3CC(C2)CC1C3` (configuration not stated), with > 94.1 µM (inactive); and `Cc1cc(C(=O)N/N=C/c2cc(Br)cc([N+](=O)[O-])c2O)c2ccccc2n1`, with > 94.1 µM (inactive); and `O=C(NC(=S)NNC(=O)c1cccs1)c1ccccc1`, with > 94.1 µM (inactive).
For the molecule `O=C(N/N=C/c1c(O)n(Cc2ccco2)c(=O)[nH]c1=O)c1ccccc1O`, the IC50 is > 94 µM (inactive).
For `Cn1c(SCC(=O)NNC(=O)c2ccccc2O)nnc1-c1ccccc1` the value was > 94.2 µM (inactive).
Then `O=C(O)c1c[nH]c2c([N+](=O)[O-])cccc2c1=O`, with > 31.3 µM (inactive); and `Cc1cc(=O)oc2cc(OCC(=O)N/N=C/c3cc([N+](=O)[O-])ccc3O)ccc12`, with > 94.1 µM (inactive); and `Cc1cccc(C(=O)NCC(=O)NNC(=O)c2ccccc2O)c1`, with > 94 µM (inactive).
For `CNC(=S)NNC(=O)c1cccn(Cc2ccc(Cl)c(Cl)c2)c1=O` the value was > 94 µM (inactive); for `O=C(Cc1ccccc1)N/N=C/c1cc(Br)cc(Br)c1O`, > 94.1 µM (inactive).
Regarding `Cc1c(NC(=S)N/N=C/c2cc([N+](=O)[O-])ccc2O)c(=O)n(-c2ccccc2)n1C`, the IC50 was > 94.1 µM (inactive).
For the molecule `O=c1cc(-c2ccc(O)c(O)c2)oc2c1ccc1ccccc12`, the IC50 was 6.25 µM.
Take `O=C(CSc1nc2ccccc2c(=O)n1-c1ccc(F)c(Cl)c1)Nc1cccc(S(=O)(=O)N2CCOCC2)c1`: the IC50 is > 10.5 µM (inactive).
For `O=C(N/N=C/c1cc(Br)cc(Br)c1O)c1cccc(N2CCCC2=O)c1`, the IC50 is > 94.1 µM (inactive).
For `CCCCCCn1c(=O)c(C(=O)Nc2ncccc2O)c(O)c2ccccc21` the value was > 94.2 µM (inactive).
Then `O=C(CSc1nc2ccccc2s1)N/N=C/c1cc([N+](=O)[O-])ccc1O`, with > 94.1 µM (inactive); and `CC(C)C(=O)Nc1ccc(C(=O)NNC(=S)NC(=O)c2ccccc2[N+](=O)[O-])cc1`, with > 94.1 µM (inactive); and `O=C1C=C(NCCc2cc(Br)c(O)c(Br)c2)C(=O)c2ncccc21`, with “inactive”.
Then `Cc1cc(C)c(-c2cc(NC(=O)COC(=O)c3ccc(NC(=O)CC#N)cc3)n(-c3ccccc3)n2)cc1C`, with > 94.1 µM (inactive).
Regarding `O=C(NNC(=S)NC(=O)c1cccc([N+](=O)[O-])c1)c1ccc(O)cc1`, the IC50 was > 94 µM (inactive).
`CNC(=S)NNC(=O)c1oc2nc(-c3ccccc3)cc(-c3ccco3)c2c1N`: the IC50 was > 94.1 µM (inactive).
On to `COc1ccc(NS(=O)(=O)c2cc(NC(=O)/C=C/c3cc(OC)c(OC)c(OC)c3)ccc2N2CCCCC2)cc1`, for which the IC50 is > 94.1 µM (inactive).
For `CNC(=S)NNC(=O)c1cccn(Cc2cccc(C(F)(F)F)c2)c1=O` the value was > 94.1 µM (inactive); for `COc1cc(/C=N/NC(=O)c2cc(O)cc(O)c2)ccc1OC(=O)c1ccccc1`, > 94.1 µM (inactive).
For the molecule `C/C(=N\NC(=O)c1nnn(-c2nonc2N)c1-c1ccccc1)c1ccccc1O`, the IC50 is > 94.1 µM (inactive).
Then `O=C(CCNC(=O)c1ccc(Br)cc1)NNC(=O)c1ccccc1O`, with > 94.1 µM (inactive).
Then `COC(=O)c1cc(O)c(O)c(O)c1`, with > 94.3 µM (inactive); and `O=C(NNC(=O)c1ccc2ccccc2c1O)c1cccs1`, with > 94.1 µM (inactive).
For `O=C(N/N=C/c1cccc([N+](=O)[O-])c1O)c1cccs1` the value was > 94.1 µM (inactive).
